# Measured values as given in patent publication US8841277B2, “Methods for treating non-small cell lung cancer using 5-azacytidine” (Celgene Corporation, priority 2009, dated 2014).
# Entries after “also recorded” stand apart in the source; their conditions may differ.
# What was measured:
# H1299 cells [1] = experiment: Cell cycle distribution (NIM-DAPI), H1299; type: cell-based
# Description: These studies examined the cell cycle distribution of NSCLC cells treated with AZA or DAC using NIM-DAPI analysis.
# (§1) For cell cycle distribution, cells were stained with the NIM-DAPI reagent (Beckman Coulter, Inc.; Fullerton, Calif.). For measurement of early- and late-apoptotic cell populations, cells were stained with AnnexinV-FITC and 7-AAD reagents (Beckman Coulter, Inc.). Samples were processed according to manufacturer's instructions and analyzed on a Cell Lab Quanta MPL flow cytometer (Beckman Coulter, Inc.). […] Data were also collected for untreated cells as control.
# [2] = system: LINE-1 elements in H1299 cells; experiment: LINE-1 Methylation Assay, H1299; type: cell-based
# Procedure: Genomic DNA was purified from cells using the DNeasy Blood and Tissue Kit (Qiagen; Valencia, Calif.), according to the manufacturer's instructions. DNA yield was quantitated with a NanoDrop 8000 spectrophotometer (Thermo Fisher Scientific, Inc.). DNAs (1 μg/sample) were submitted to EpigenDx (Worcester, Mass.) for bisulfate conversion and pyrosequencing of LINE-1 elements. Briefly, 1 μg of DNA was bisulfite-treated using the Zymo DNA Methylation Kit (Zymo Research; Orange, Calif.) and eluted in 10 μL volume. DNA eluate (1 μL) was used for PCR with biotinylated primers to the LINE-1 locus, converting the PCR product to single-stranded DNA templates. PCR products (each 10 μL) were sequenced by Pyrosequencing PSQ96 HS System (Biotage AB), following the manufacturer's instructions (Biotage; Kungsgatan, Sweden). The methylation status of each locus was analyzed individually as a T/C SNP using QCpG software (Biotage). Percent LINE-1 methylation represents the average percent methylation of four CpG sites in duplicate samples.
# At the highest drug concentration tested (3 μM), LINE-1 methylation was less affected, possibly due to reduced drug incorporation as a result of inhibited cell proliferation.
# H1299 cells [3] = experiment: Gene expression microarray analysis, H1299; type: cell-based, human; conditions: H1299, 48 hours; for Downregulated Genes: Genes in Common (number) / Upregulated Genes: Genes in Common (number): regulated by both AZA and DAC;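 on all read-outs here: drug dose range 0.3 to 3 µM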
# Procedure: (§2) Cells were lysed using the TRIzol reagent (Life Technologies Corporation) and total RNA was isolated using miRNeasy (Qiagen). Double-stranded cDNA and biotin-labeled cRNA were synthesized using 100 ng of total RNA using Ambion's MessageAmp Premier RNA Amplification Kit (ABI; Foster City, Calif.). Biotin-labeled cRNA, at 10 μg, was fragmented and hybridized to each human U133A 2.0 genechip (Affymetrix; Santa Clara, Calif.). The GC-RMA algorithm was used for normalization and all analyses were done using GeneSpring 7.3 (Agilent; Santa Clara, Calif.). Averaged signals from biological duplicate samples were used to determine fold change (Treated vs. Untreated), with an absolute fold change of ≧1.7 defining regulated genes. NextBio was used to identify regulated Gene Ontology biogroups from lists of regulated genes. The top 15 biogroups are those with the lowest p-values calculated within NextBio.
# (§3) The number of genes modulated in common between the two drugs was low.
# (§4) Functional groupings of the modulated genes were determined using Gene Ontology classifications in Nextbio (http://www.nextbio.com/).
# A549 cells [4] = experiment: Gene expression microarray analysis, A549; type: cell-based, human; conditions: A549, 48 hours; for Downregulated Genes: Genes in Common (number) / Upregulated Genes: Genes in Common (number): regulated by both AZA and DAC;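 on Downregulated Genes: AZA-Specific / DAC-Specific Genes (number): drug dose range 0.3 to 3 µM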;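 on Downregulated Genes: Genes in Common (number): drug dose range 0.3 to 3 µM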;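 on Upregulated Genes: AZA-Specific / DAC-Specific Genes (number): drug dose range 0.3 to 3 µM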;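 on Upregulated Genes: Genes in Common (number): drug dose range 0.3 to 3 µM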
# Procedure: as §2, §3, §4
# NSCLC cell types = experiment: Apoptosis (AnnexinV-FITC/7-AAD), summary; type: cell-based; conditions: summary of studies
# Description: as §1
# MDS, AML, CML, ALL, NHL = conditions: e.g. treatment of MDS, Aparicio et al. 2002; cited from earlier work
# DNMT1 [5] = experiment: DNMT1 protein depletion, H23; type: cell-based; conditions: H23 cell line
# Procedure: (§5) Reduced DNMT1 levels were detected in these cell lines as early as 4 hours after drug treatment (FIG. 17).
# DNMT1 [6] = experiment: DNMT1 protein depletion, H460; type: cell-based; conditions: dose range, 20 hours
# Procedure: (§6) For western analyses of protein levels, cells were washed with PBS and lysed with RIPA buffer (Cell Signaling Technology, Inc.; Danvers, Mass.) containing 350 mM NaCl and 0.1% SDS. Cell lysates were sonicated with two 5-second bursts under low amplitude (20%) using the Digital Sonic Dismembrator (Thermo Fisher Scientific, Inc.; Waltham, Mass.). Proteins were separated on 4-12% Bis-Tris NuPAGE gels (Life Technologies Corporation) and transferred to nitrocellulose membranes. DNMT1, phos-Histone-H2AX(Ser139), total Histone-H2AX, cleaved-PARP, p21, p53, and alpha-tubulin were detected using the Li-Cor Odyssey imaging system (Li-Cor Biotechnology; Lincoln, Nebr.), following incubation with the appropriate primary and secondary antibodies. The phos-Histone-H2AX(Ser139), cleaved-PARP, and p21 antibodies were from Cell Signaling Technology, Inc. The p53 and total Histone-H2AX (C-20) antibodies were from Santa Cruz Biotechnology, Inc. (Santa Cruz, Calif.). The alpha-tubulin and DNMT1 antibodies were purchased from EMD Chemicals, Inc. (Gibbstown, N.J.) and Abcam, Inc. (Cambridge, Mass.), respectively. The goat anti-Rabbit IRDye 680, goat anti-Mouse IRDye 800CW, and donkey anti-Goat IRDye 800CW secondary antibodies were from Li-Cor Biotechnology.
# as §5
# A549 cells [7] = experiment: Western analysis of DNA damage and apoptosis markers, A549; type: cell-based; conditions: 0.3-10 μM, 24 h to 72 h (3 days)
# Procedure: These studies also examined apoptosis using an assay for PARP cleavage. Cells studied included H460, A549, and H1299 cells.
# as §6
# A549 cells [8] = experiment: Apoptosis (AnnexinV-FITC/7-AAD), A549; type: cell-based; conditions: 48-hour treatment, 0.3-10 μM
# Description: as §1
# H460 cells = experiment: Apoptosis (AnnexinV-FITC/7-AAD), H460; type: cell-based; conditions: 0.3-10 μM
# Description: as §1
smiles,measurement,setting,value
"Nc1ncn([C@@H]2O[C@H](CO)[C@@H](O)[C@H]2O)c(=O)n1 [AZA, 4-amino-1-β-D-ribofuranosyl-1,3,5-triazin-2(1H)-one]",Cell cycle distribution (NIM DAPI),"H1299 cells [1]; 72-hour treatment, 0.3-10 μM",induced accumulation of cells in G2/M and Sub-G1
same,Cell cycle distribution (NIM DAPI),H1299 cells [1]; summary of studies,induced accumulation of cells in Sub-G1
same,Concentration of peak hypomethylation (LINE-1),[2]; 48 or 72 hours,0.3-1 μM
same,DNA hypomethylation (LINE-1 methylation),[2]; 48 hours or 72 hours,induced DNA hypomethylation; also recorded: caused a decrease in LINE-1 methylation
same,Downregulated Genes: AZA-Specific / DAC-Specific Genes (number),H1299 cells [3]; 0.3 μM,33
same,Upregulated Genes: AZA-Specific / DAC-Specific Genes (number),H1299 cells [3]; 0.3 μM,10
same,Downregulated Genes: Genes in Common (number),H1299 cells [3]; 0.3 μM,45
same,Upregulated Genes: Genes in Common (number),H1299 cells [3]; 0.3 μM,55
same,Downregulated Genes: AZA-Specific / DAC-Specific Genes (number),H1299 cells [3]; 1.0 μM,393
same,Upregulated Genes: AZA-Specific / DAC-Specific Genes (number),H1299 cells [3]; 1.0 μM,435
same,Downregulated Genes: Genes in Common (number),H1299 cells [3]; 1.0 μM,107
same,Upregulated Genes: Genes in Common (number),H1299 cells [3]; 1.0 μM,135
same,Downregulated Genes: AZA-Specific / DAC-Specific Genes (number),H1299 cells [3]; 3.0 μM,991
same,Upregulated Genes: AZA-Specific / DAC-Specific Genes (number),H1299 cells [3]; 3.0 μM,1368
same,Downregulated Genes: Genes in Common (number),H1299 cells [3]; 3.0 μM,153
same,Upregulated Genes: Genes in Common (number),H1299 cells [3]; 3.0 μM,173
same,Downregulated Genes: AZA-Specific / DAC-Specific Genes (number),A549 cells [4]; 0.3 μM,14
same,Upregulated Genes: AZA-Specific / DAC-Specific Genes (number),"A549 cells [4]; 0.3 μM, fold change ≧1.7",16
same,Downregulated Genes: Genes in Common (number),A549 cells [4]; 0.3 μM,11
same,Upregulated Genes: Genes in Common (number),A549 cells [4]; 0.3 μM,17
same,Downregulated Genes: AZA-Specific / DAC-Specific Genes (number),A549 cells [4]; 1.0 μM,273
same,Upregulated Genes: AZA-Specific / DAC-Specific Genes (number),A549 cells [4]; 1.0 μM,279
same,Downregulated Genes: Genes in Common (number),A549 cells [4]; 1.0 μM,30
same,Upregulated Genes: Genes in Common (number),A549 cells [4]; 1.0 μM,45
same,Downregulated Genes: AZA-Specific / DAC-Specific Genes (number),A549 cells [4]; 3.0 μM,560
same,Upregulated Genes: AZA-Specific / DAC-Specific Genes (number),A549 cells [4]; 3.0 μM,636
same,Downregulated Genes: Genes in Common (number),A549 cells [4]; 3.0 μM,55
same,Upregulated Genes: Genes in Common (number),A549 cells [4]; 3.0 μM,66
same,Regulation of genes in the Response to DNA Damage Stimulus/DNA Repair biogroup,A549 cells [4],general upregulation
same,Early- and late-apoptotic cell populations (AnnexinV/7-AAD),NSCLC cell types,dramatic increase in early-apoptotic (AnnexinV+ 7-AAD−) and late-apoptotic (AnnexinV+ 7-AAD+) cells
same,Anti-tumor activity in clinical trials,"MDS, AML, CML, ALL, NHL",significant anti-tumor activity
same,DNMT1 depletion,DNMT1 [5],time- and dose-dependent depletion
same,DNMT1 protein levels,DNMT1 [6],significantly reduced
same,Induction of Histone H2AX phosphorylation (marker of DNA damage),A549 cells [7],induced
same,Induction of PARP cleavage (marker of apoptosis),A549 cells [7],induced
same,Early- and late-apoptotic cell populations (AnnexinV/7-AAD),A549 cells [8],dramatic increase in early-apoptotic (AnnexinV^+ 7-AAD^−) and late-apoptotic (AnnexinV^+ 7-AAD^+) cells
same,Early- and late-apoptotic cell populations (AnnexinV/7-AAD),H460 cells; 30-hour treatment,dramatic increase in early-apoptotic (AnnexinV^+7-AAD^−) and late-apoptotic (AnnexinV^+7-AAD^−) cells
same,Early- and late-apoptotic cell populations (AnnexinV/7-AAD),H460 cells; 48-hour treatment,dramatic increase in early-apoptotic (AnnexinV^+7-AAD^−) cells
